From paper PMC6452685, “Lysyl-tRNA synthetase as a drug target in malaria and cryptosporidiosis” (Proceedings of the National Academy of Sciences of the …, 2019)
Like-named read-outs stand apart in the source and are kept apart here.

Assays:
PfKRS1 = PfKRS1 (Plasmodium falciparum, UniProt Q8IDJ8); assay: Recombinant KRS thermal shift assay, PfKRS1; type: binding; parameters: recombinant PfKRS1 (77–583 and 80–583); 6xHis (N); made in house; host or cells: E. coli Rosetta BL21(DE3), vector pAVA0421; conditions: 40 µM inhibitor
Sequence of PfKRS1 (Q8IDJ8 77-583): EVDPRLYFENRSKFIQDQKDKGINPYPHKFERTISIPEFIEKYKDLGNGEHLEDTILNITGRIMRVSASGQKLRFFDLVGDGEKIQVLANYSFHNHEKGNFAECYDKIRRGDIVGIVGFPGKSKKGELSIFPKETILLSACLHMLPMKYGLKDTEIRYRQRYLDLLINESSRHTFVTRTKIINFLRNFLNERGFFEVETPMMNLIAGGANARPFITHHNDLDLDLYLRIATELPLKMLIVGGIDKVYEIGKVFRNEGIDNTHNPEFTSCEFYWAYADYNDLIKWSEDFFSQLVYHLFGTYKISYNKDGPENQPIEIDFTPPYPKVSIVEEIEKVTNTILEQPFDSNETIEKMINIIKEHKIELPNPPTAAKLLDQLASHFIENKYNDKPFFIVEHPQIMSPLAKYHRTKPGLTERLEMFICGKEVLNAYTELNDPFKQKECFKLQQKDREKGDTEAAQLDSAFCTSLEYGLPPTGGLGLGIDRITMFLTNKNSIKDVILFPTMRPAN
Procedure: (§1) 2.9 Recombin ant KR S thermal shift assays ( UW)
(§2) Recombi nant PfKRS1, CpKRS, and HsKRS were di l u ted to 4 µM in assay buffe r c ontaining 20 mM Tris-HC l pH 8, 200 mM NaC l , 5 mM DTT, 5 mM MgC l2 and l i gands (1 mM lysi ne; 40 µM ATP; and 40 µM inhibitors) in various combinations. Ali quot s (10 µl) were added to a 96-well PCR plate and incubated at ambi ent temperature for 15 mi n. SYPRO® Ora n g e dye (I nv itrog en) was di l uted i n ass ay buffer to a 5x concent rat i on a nd 1 0 µl was added to t he P C R pl at e t o bri ng t he fi nal as s ay v ol ume t o 20 µl. The pl at e w as s eal ed and pul s e cent ri fug ed t o cons ol i dat e t he as s ay mix t ure and remov e ai r bu bbl es .
(§3) Us i ng a StepOne Pl us RT-PCR thermal cycler (Ap plied Biosystems) to monitor fluorescence at a n excitation/emission wavelength of 300/470-570 nm, the samples were heated from 25° C to 99° C at a ramp rate of .016° C/sec. Graphpa d® P rism software (GraphPad S oftware, San Diego, CA) was used to determine melting temperatures (Tm) us i ng Bol tzmann s i g moi dal analys is .
(§4) Table S3. Thermal shift data for compounds with P fKRS1, Cp KRS a nd Hs KRS.
(§5) Com poun d Eff ects o n Lys R S M elti ng Tem pe ratu re ( ∆Tm) […]

HsKRS = target: T1, HsKRS (Homo sapiens, UniProt Q15046); assay: Recombinant KRS thermal shift assay, HsKRS; type: binding; conditions: 40 µM inhibitor
T1 construct: HsKRS (full-length) proteins; 6xHis (N); made in house; host or cells: E. coli Rosetta BL21(DE3), vector pAVA0421 (UW); template pET28a-KRS
T1 sequence (Q15046 whole entry): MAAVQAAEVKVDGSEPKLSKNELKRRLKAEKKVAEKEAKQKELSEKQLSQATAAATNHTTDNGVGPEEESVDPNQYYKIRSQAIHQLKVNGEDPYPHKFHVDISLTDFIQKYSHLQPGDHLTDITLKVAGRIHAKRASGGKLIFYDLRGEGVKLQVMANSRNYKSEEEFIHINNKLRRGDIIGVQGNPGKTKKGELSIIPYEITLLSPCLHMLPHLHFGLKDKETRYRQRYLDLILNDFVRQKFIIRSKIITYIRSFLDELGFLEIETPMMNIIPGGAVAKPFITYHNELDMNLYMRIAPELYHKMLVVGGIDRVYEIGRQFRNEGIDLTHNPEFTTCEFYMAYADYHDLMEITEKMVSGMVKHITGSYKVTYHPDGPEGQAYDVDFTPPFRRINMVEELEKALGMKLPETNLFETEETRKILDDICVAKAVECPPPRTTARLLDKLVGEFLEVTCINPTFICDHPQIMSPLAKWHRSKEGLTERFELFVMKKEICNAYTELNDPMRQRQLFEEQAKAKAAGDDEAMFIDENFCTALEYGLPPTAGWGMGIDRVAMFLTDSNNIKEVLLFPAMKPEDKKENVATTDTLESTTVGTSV
Procedure: as §1, §2, §3, §4, §5

CHI logD = type: physicochemical; conditions: reversed-phase HPLC (Luna C18 column), pH 7.4
Procedure: targets. Thi s can be determi ned by ei ther l og D or Log P measurements, whi ch are tradi ti onal ly qui te time consuming and require quite large amounts of com pound to determine accurately.
The CHI Log D assay, fi rst descri bed by Valkό et a l. (17), has been adapt ed and perfo rmed at pH 7. […] An ali quot (10 µl) i s then i njected onto a Luna C18 col umn (Phenomenex, Maccl esfi el d, UK, 4.6 x 150 mm) wi th 5 µ m pa rti cl e size. Mobil e phase A (MPA) i s 50 mM ammoni um acetate (pH 7.4) and mobi l e Phase B (MPB) i s MeCN. The LC system used was a Dionex Ultimate 3000 HLPC where 10 0% MPA was hel d for the i ni ti al 1.5 mi n of the run, then a l i near gradi ent to 0% MPA takes pl ace over the next 10 mi n bef ore being held there fo r a furthe r 2. 5 mi n bef ore re-eq uilibration back to 100% MPA at 14 min with data collection continuing until 1 5 mi n. Flow rate was 1 ml/mi n w i t h det ecti on at 25 4 nm U V and ambi ent t emperat ure.
The ret ent i on t i me (t R) of t he unk nown drug is interpolated from the slope and intercept created us i ng ret ent i on t i mes of s t andard mi x t ure c o mponent s cont ai ni ng paracet amol , t heophy l l i ne, caffei ne, benzi mi dazol e, col chi ci ne, carbamazepi ne, i ndol e, propi ophenone, b uty rophen one , valerophenone and hepatophenone (prepared at 10 µg/ml in MeCN:water [1/1, by v ol ume]), w hi ch cov ers the C HI l og D rang e from -1 t o 4. […]
4.4 Int r ins ic C le ar ance (CLi) experiments
The mous e an d h uman c ry opres erv ed he pat ocy t es w ere s uppl i ed by Xenot ech (bat ches M C 53 9 n a HUE50H ). The procedure was carried out as reported prev i ous l y (15). […] Immediately, at time zero, then at 3, 6, 9, 15 and 30 min an aliquot ( 50 μl) o f the i ncubati on mi x ture was remov ed and mi x ed with acetonitrile (100 μl) contai ni ng i nternal s tandard to stop the reaction. […] XLfi t software (I DBS, Guildford UK) was used to cal cul ate the exponenti al decay and consequentl y the rate cons tant (ke-1) from the rati o of peak area of tes t compou nd to i nternal s tandard at each ti me poi nt . […]

CpKRS = CpKRS (Cryptosporidium parvum, UniProt Q5CR27); assay: Recombinant KRS thermal shift assay, CpKRS; type: binding; conditions: 40 µM inhibitor
Sequence of CpKRS (Q5CR27 entry or part of it): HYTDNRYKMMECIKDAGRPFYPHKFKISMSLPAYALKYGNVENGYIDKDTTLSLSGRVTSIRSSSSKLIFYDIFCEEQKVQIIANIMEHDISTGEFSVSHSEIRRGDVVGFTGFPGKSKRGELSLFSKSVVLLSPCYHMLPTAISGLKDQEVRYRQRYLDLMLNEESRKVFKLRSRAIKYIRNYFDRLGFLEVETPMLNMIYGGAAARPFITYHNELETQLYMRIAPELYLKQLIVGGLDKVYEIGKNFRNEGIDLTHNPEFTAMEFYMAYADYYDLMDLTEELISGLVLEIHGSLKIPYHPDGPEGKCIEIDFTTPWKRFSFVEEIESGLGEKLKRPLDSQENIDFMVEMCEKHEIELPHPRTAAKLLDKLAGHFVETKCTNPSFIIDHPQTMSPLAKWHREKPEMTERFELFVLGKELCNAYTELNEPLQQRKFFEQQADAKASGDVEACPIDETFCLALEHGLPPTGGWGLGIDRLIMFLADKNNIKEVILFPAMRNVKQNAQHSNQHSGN
Procedure: as §1, §2, §3, §4, §5

[1] = read-out: ΔTm PfKRS, ATP + Lysine
[2] = read-out: ΔTm PfKRS, no substrate

SMILES	ΔTm at 40 µM (PfKRS1; ATP + Lysine, read-out: ΔTm PfKRS)	ΔTm at 40 µM (PfKRS1; ATP, read-out: ΔTm PfKRS)	ΔTm at 40 µM (PfKRS1; Lysine, read-out: ΔTm PfKRS)	ΔTm at 40 µM (PfKRS1; no substrate, read-out: ΔTm PfKRS)	ΔTm at 40 µM (HsKRS; ATP + Lysine)	ΔTm at 40 µM (HsKRS; ATP)	ΔTm at 40 µM (HsKRS; Lysine)	ΔTm at 40 µM (HsKRS; no substrate)	chromatographic logD (CHI logD)	ΔTm at 40 µM (CpKRS; ATP + Lysine)	ΔTm at 40 µM (CpKRS; ATP)	ΔTm at 40 µM (CpKRS; Lysine)	ΔTm at 40 µM (CpKRS; no substrate)	ΔTm at 40 µM (PfKRS1; [1])	ΔTm at 40 µM (PfKRS1; read-out: ΔTm PfKRS, ATP)	ΔTm at 40 µM (PfKRS1; read-out: ΔTm PfKRS, Lysine)	ΔTm at 40 µM (PfKRS1; [2])
C[C@H]1CCC[C@H](C[C@H]2Cc3cc(O)cc(O)c3C(=O)O2)O1 [Compound 1, cladosporin, reference compound]	7.2 °C	3.5 °C	9.3 °C	3.4 °C	-8.2 °C	0.3 °C	-9.2 °C	-0.1 °C	2.4	14 °C	0.1 °C	19.5 °C	-0.1 °C				
O=C(NCC1CCCCC1)c1cc(=O)c2ccccc2o1 [Compound 2]					-8.6 °C	0.3 °C	-10 °C	-0.3 °C	2.9	11.7 °C	0.7 °C	19.3 °C	0 °C	5.1 °C	0.9 °C	7.4 °C	1.2 °C
O=C(NCC1CCCCC1)c1cc(=O)c2cc(F)ccc2o1 [Compound 3]					-10.8 °C	0.4 °C	-8.4 °C	-0.1 °C		0.8 °C	0.2 °C	1.2 °C	-0.2 °C	2.4 °C	0.2 °C	5.3 °C	0.5 °C
O=C(NCC1(O)CCCCC1)c1cc(=O)c2cc(F)ccc2o1 [Compound 4]					-7.2 °C	-0.1 °C	-7.4 °C	-0.5 °C		11.8 °C	0 °C	18.4 °C	-0.2 °C	5.1 °C	0.5 °C	7.5 °C	0.9 °C
O=C(NCC1(O)CCC(F)(F)CC1)c1cc(=O)c2cc(F)ccc2o1 [Compound 5]					-7.4 °C	0.4 °C	-7.6 °C	0.3 °C	1.7	13 °C	-0.2 °C	14.7 °C	-0.5 °C	5.3 °C	0.9 °C	7.5 °C	1.3 °C
